These results are taken from US20080213863A1, “Method of Controlling Viral Outbreak” (priority 2003, published 2008).

The test system of one data set is LFA-1. Description: SDF-1-induced binding of cells to ICAM-1 through LFA-1. Format: cell-based. Particulars: cholesterol-depleted cells. The source says: (§1) As described above, budding of HIV-1 particles occurs at lipid rafts, which are characterized by a distinct lipid composition that includes high concentrations of cholesterol, sphingolipids, and glycolipids. Since cholesterol plays a key role in the entry of some other viruses, the role in HIV-1 entry of cholesterol and lipid rafts in the plasma membrane of susceptible cells was investigated. […] A β-CD derivative, 2-hydroxypropyl-β-cyclodextrin (2-OH-β-CD), was used to deplete cellular cholesterol and disperse lipid rafts. As disclosed herein, removal of cellular cholesterol rendered primary cells and cell lines highly resistant to HIV-1-mediated syncytium formation and to infection by both CXCR4- and CCR5-specific strains of HIV-1 virus. […] Cholesterol depletion also made cells resistant to SDF-1-induced binding to ICAM-1 through LFA-1.

Data set [1] relates to HIV-1. The data set is described as follows: HIV-1-mediated syncytium formation. The format is cell-based. Particulars: treatment of target cells.
The test system of data set [2] is HIV-1. The data set is described as follows: Capture of HIV-1 by MAbs against host and viral proteins, measured as percentage of total p24. Format: cell-based. An excerpt: By removing cholesterol, 2-OH-β-CD is believed to partially perturb organized lipid rafts, resulting in dispersal of their components (Ilangumaran and Hoessli, Biochem. J. 335:433-440, 1998).

In data set [3] the test system is HIV-1. Description: HIV-1 binding to cells. The settings on record: treatment of the virus or cells. Format: cell-based.
Excerpt: as §1

Data set [4] concerns CD4+ HIV-susceptible target cells. Description: Depletion of total cellular cholesterol by 2-OH-β-CD treatment. Format: cell-based. Particulars: 10 to 20 mM for 1 hour at 37° C., then washing.
Excerpt: The role of lipid rafts in the HIV-1 fusion process was examined by treating CD4+ HIV-susceptible target cells with 2-OH-β-CD to deplete membrane cholesterol and disperse lipid rafts.
The subject of the next data set is CD4; chemokine receptors. The data set is described as follows: CD4 expression and antibody-mediated internalization of chemokine receptors. The settings on record: treatment of the virus or cells. Format: cell-based.
The test system of data set [5] is HIV-1. Description: Infection of primary cells and cell lines by HIV-1 strains. The format is cell-based. Particulars: primary cells and cell lines treated.
Where [6] appears, read: after treating cells, percentage of total p24.

With “2-hydroxypropyl-β-cyclodextrin [2-OH-β-CD]”, the “SDF-1-induced binding to ICAM-1 through LFA-1” value in the data set with LFA-1 is reported as “resistant”. Also, in the data set on HIV-1 [1], the “syncytium formation of primary cells and cell lines” value is “blocked syncytium formation”. Further, the “CD45 capture of HIV-1” value with HIV-1 [2] (after treating cells) is reported as “remained unaffected”. Also, in the data set with HIV-1 [2] (setting [6]), the “capture of HIV-1 by MAb against CD59” value is “decreased substantially” and the “capture of HIV-1 by MAb against gp41” value is “decreased substantially”. Moreover, the “overall cellular release of p24” value with HIV-1 [2] (after treatment) is on record as “increased”. Moreover, in the data set on HIV-1 [3], the HIV-1 binding result was “partially reduced”. The “Ca2+ flux responses to anti-CD3 MAb” value in the data set on Jurkat cells is recorded as “still showed Ca^2+ flux responses”. The “depletion of total cellular cholesterol” value in [4] was “greater than 70%”. In addition, in the data set on CD4; chemokine receptors, the CD4 expression entry is on record as “no effect” and the “antibody-mediated internalization of chemokine receptors” value is given as “highly sensitive”. The “infection by CXCR4-specific and CCR5-specific HIV-1 strains” value in the data set on HIV-1 [5] is listed as “rendered resistant”. Besides, in the data set on treated cells, the “cell growth after treatment” value was “continued to grow normally”.
